Source: patent US5962502A, “Polyamidic acid derivatives with antigastrin activity, a method for their preparation, and their pharmaceutical use” (priority 1993, dated 1999)

Key:
CCK-A = target: T1, CCK-A (Cavia porcellus, UniProt Q63931); assay: Anti-CCK-A activity on guinea-pig gall bladder stimulated in vitro by CCK-8; conditions: for Ratio I/II (CCK-A IC50 / CCK-B IC50): gall bladder IC50 over gastric mucous cells IC50; for IC50: guinea-pig gall bladder in vitro, CCK-8 10 ng/ml, read-out: CCK-A-antagonistic activity IC50 (I)
T1 construct: A longitudinal strip of guinea-pig gall-bladder was put in a bath for isolated organs; from tissue; host or cells: guinea-pig gall bladder longitudinal strip
T1 sequence (Q63931 1-430): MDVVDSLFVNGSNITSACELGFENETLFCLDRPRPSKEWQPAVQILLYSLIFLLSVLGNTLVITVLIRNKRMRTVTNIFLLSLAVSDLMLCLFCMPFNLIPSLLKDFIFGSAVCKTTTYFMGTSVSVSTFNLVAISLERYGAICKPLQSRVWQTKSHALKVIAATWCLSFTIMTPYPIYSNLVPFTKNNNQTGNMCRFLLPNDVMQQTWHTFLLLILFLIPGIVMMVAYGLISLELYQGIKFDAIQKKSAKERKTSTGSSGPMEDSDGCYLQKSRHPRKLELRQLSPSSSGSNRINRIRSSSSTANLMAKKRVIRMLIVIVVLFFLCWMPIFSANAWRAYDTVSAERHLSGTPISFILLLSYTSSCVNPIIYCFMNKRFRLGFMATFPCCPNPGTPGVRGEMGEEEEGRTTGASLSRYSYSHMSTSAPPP
Experimental: The experimental model used was guinea-pig gall bladder stimulated in vitro by CCK-8, with the use of lorglumide as the reference standard. A longitudinal strip of guinea-pig gall-bladder was put in a bath for isolated organs in the presence of Krebs buffer at a temperature of 32° C., with continuous oxygenation with an oxygen-CO2 mixture (95-[…]). The isometric contractions were detected by means of a force transducer and recorded.

central CCK-B receptor = target: T2, central CCK-B receptor (Cavia porcellus, UniProt H0VZC5); assay: Inhibition of the binding of [3-H][N-methyl-N-leucine]CCK-8 to guinea-pig cortical membranes; conditions: for times more active than the corresponding diastereoisomer at the carbon atom (**): binding, guinea-pig cortex; for IC50: 150 minutes at 25° C.
T2 construct: Cerebral cortices of male white guinea-pigs were thus used; from tissue; host or cells: cerebral cortex membranes of male white guinea-pigs
T2 sequence (H0VZC5 1-426): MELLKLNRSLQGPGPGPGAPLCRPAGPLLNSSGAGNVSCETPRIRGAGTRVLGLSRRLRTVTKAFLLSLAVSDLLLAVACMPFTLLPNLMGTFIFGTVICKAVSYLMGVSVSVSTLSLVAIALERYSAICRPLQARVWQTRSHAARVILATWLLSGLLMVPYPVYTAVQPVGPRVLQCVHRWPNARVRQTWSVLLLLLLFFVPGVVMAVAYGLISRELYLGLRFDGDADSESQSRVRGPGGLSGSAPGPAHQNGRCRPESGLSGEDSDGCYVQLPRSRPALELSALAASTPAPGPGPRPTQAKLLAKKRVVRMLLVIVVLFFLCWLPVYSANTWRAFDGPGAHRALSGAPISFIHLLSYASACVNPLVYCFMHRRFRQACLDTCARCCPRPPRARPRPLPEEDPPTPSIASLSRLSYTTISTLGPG
Outline: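 Male guinea-pig cerebral cortex membranes (about 300 mcg protein/ml) incubated with non-sulphated [3-H]-labelled CCK-8 tracer and compound 150 minutes at 25° C. Pellet radioactivity counted by liquid scintillation; nonspecific binding defined with 5.10^-6 M CCK-8.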

mouse = assay: Black and White Box test in the mouse (anxiolytic activity); assay type: in vivo; conditions: for LIGHT TIME TOTAL TIME / LIGHT-DARK MOVEMENTS / MOV. DARK % TOTAL MOV. / TOTAL MOVEMENTS: 5 minutes; for anxiolytic activity, result in words: Black and White Box test, IP; for increase in the number of light-dark movements in comparison with the controls: summary over doses
Experimental: It has recently been postulated that the central CCK-B receptor has an important role in anxiety. This is in accordance with studies also carried out in man, which have shown that the central CCK-B mechanisms have an important function in the mediation of panic attacks [Bradwejn, H. et al; J. Psychopharmacology 6 (1992), 345]. […] This experimental model, which was carried out according to Costall et al [Pharm. Biochem. Behav. 32 (1989), 777-785], used a box with dimensions of 45×21×21(h) cm divided into 2 compartments which communicated with one another through a 13×5 cm hole. The smaller compartment (1/3 of the total area) had black walls, whereas the larger had transparent walls and was illuminated by a lamp which was placed 20 cm above the box and supplied light at 20W. Under the floor there was an activity meter which recorded the movements performed by the animal in the individual compartments. The experiment was started by placing the animal in the centre of the illuminated box; as well as movements, the time which the animal spent in the dark and in the light areas and the number of movements between the 2 compartments were then recorded for 5 minutes. A control animal generally preferred to stay in the dark compartment where it felt better protected from an unusual environmental situation which put it in a state of anxiety. In this experimental model, a compound having anxiolytic activity decreased the % of movements into the dark in comparison with the total movements, increased the movements between the two light-dark compartments, and increased the % of time spent in the light in comparison with the total time.
The results obtained are shown in Table 7, where the activities obtained with compounds 9, 21 and 51 are given, tested in comparison with diazepam.

How did the “Ratio I/II (CCK-A IC50 / CCK-B IC50)” value (CCK-A) turn out when `O=C(CC[C@@H](NC(=O)c1cc(Cl)cc(Cl)c1)C(=O)N1CCC2(CCCC2)CC1)N[C@H](Cc1ccccc1)C(=O)O` [Compound 9, (R,R)-1[(1-carboxy-2-phenylethyl)amino]-1 oxo-5-(8-azaspiro[4.5]decan-8-yl)-4-(3,5-dichloro-benzoylamino)-5-oxopentanoic acid] was run?
The value was 108.

What about the IC50 (CCK-A) of the same compound?
Its IC50 is 5.4 µM.

And the “times more active than the corresponding diastereoisomer at the carbon atom (**)” value (central CCK-B receptor)?
Its value is “about 5 times”.

And the IC50 (central CCK-B receptor; guinea-pig cortical membranes)?
The IC50 was 0.15 µM.

What about the “EFF. % VS CONTROL (LIGHT TIME TOTAL TIME)” value (mouse; 0.1 mg/kg IP) of the same compound?
Its value is 17%.

What about the “EFF. % VS CONTROL (LIGHT-DARK MOVEMENTS)” value (mouse; 0.1 mg/kg IP) of the same compound?
Its value is 6%.

What about the “EFF. % VS CONTROL (MOV. DARK % TOTAL MOV.)” value (mouse; 0.1 mg/kg IP) of the same compound?
The value was 0%.

And the “LIGHT TIME TOTAL TIME” value (mouse; 0.1 mg/kg IP)?
Its value is 31.0%.

And the “LIGHT-DARK MOVEMENTS” value (mouse; 0.1 mg/kg IP)?
Its value is 16.1.

What about the “MOV. DARK % TOTAL MOV.” value (mouse; 0.1 mg/kg IP) of the same compound?
The value was 59%.

What about the “TOTAL MOVEMENTS” value (mouse; 0.1 mg/kg IP) of the same compound?
The value was 505.

What about the “EFF. % VS CONTROL (LIGHT TIME TOTAL TIME)” value (mouse; 1.0 mg/kg IP) of the same compound?
The value was 36%.

And the “EFF. % VS CONTROL (LIGHT-DARK MOVEMENTS)” value (mouse; 1.0 mg/kg IP)?
Its value is 31%.

And the “EFF. % VS CONTROL (MOV. DARK % TOTAL MOV.)” value (mouse; 1.0 mg/kg IP)?
The value was -7%.

And the “LIGHT TIME TOTAL TIME” value (mouse; 1.0 mg/kg IP)?
Its value is 36.1%.

What about the “LIGHT-DARK MOVEMENTS” value (mouse; 1.0 mg/kg IP) of the same compound?
Its value is 19.9.

And the “MOV. DARK % TOTAL MOV.” value (mouse; 1.0 mg/kg IP)?
Its value is 55%.

And the “TOTAL MOVEMENTS” value (mouse; 1.0 mg/kg IP)?
Its value is 493.

What about the “EFF. % VS CONTROL (LIGHT TIME TOTAL TIME)” value (mouse; 10.0 mg/kg IP) of the same compound?
The value was 26%.

And the “EFF. % VS CONTROL (LIGHT-DARK MOVEMENTS)” value (mouse; 10.0 mg/kg IP)?
Its value is 16%.

What about the “EFF. % VS CONTROL (MOV. DARK % TOTAL MOV.)” value (mouse; 10.0 mg/kg IP) of the same compound?
The value was -7%.

What about the “LIGHT TIME TOTAL TIME” value (mouse; 10.0 mg/kg IP) of the same compound?
The value was 33.5%.

And the “LIGHT-DARK MOVEMENTS” value (mouse; 10.0 mg/kg IP)?
Its value is 17.7.

What about the “MOV. DARK % TOTAL MOV.” value (mouse; 10.0 mg/kg IP) of the same compound?
The value was 55%.

And the “TOTAL MOVEMENTS” value (mouse; 10.0 mg/kg IP)?
Its value is 503.

What about the “anxiolytic activity, result in words” value (mouse) of the same compound?
Its value is “anxiolytic activity without sedative activity”.

And the “increase in the number of light-dark movements in comparison with the controls” value (mouse)?
The value was 20-30%.

`O=C(CC[C@@H](NC(=O)c1cc(Cl)cc(Cl)c1)C(=O)N1CCC2(CCCC2)CC1)N[C@H](Cc1c[nH]c2ccccc12)C(=O)O` [Compound 21] was tested. Which “Ratio I/II (CCK-A IC50 / CCK-B IC50)” value (CCK-A) did it give?
Its value is 940.

And the IC50 (CCK-A)?
The IC50 was 9.4 µM.

What about the “times more active than the corresponding diastereoisomer at the carbon atom (**)” value (central CCK-B receptor) of the same compound?
The value was “about 5 times”.

And the “inhibition of the binding of [N-methyl-N-leucine]CCK-8, result in words” value (central CCK-B receptor; guinea-pig cortical membranes)?
The value was “potent inhibitors”.

And the IC50 (central CCK-B receptor; guinea-pig cortical membranes)?
The IC50 was 0.04 µM.

What about the “EFF. % VS CONTROL (LIGHT TIME TOTAL TIME)” value (mouse; 0.03 mg/kg IP) of the same compound?
Its value is 11%.

And the “EFF. % VS CONTROL (LIGHT-DARK MOVEMENTS)” value (mouse; 0.03 mg/kg IP)?
The value was 26%.

What about the “EFF. % VS CONTROL (MOV. DARK % TOTAL MOV.)” value (mouse; 0.03 mg/kg IP) of the same compound?
Its value is -6%.

And the “LIGHT TIME TOTAL TIME” value (mouse; 0.03 mg/kg IP)?
The value was 28.9%.

What about the “LIGHT-DARK MOVEMENTS” value (mouse; 0.03 mg/kg IP) of the same compound?
The value was 18.2.

And the “MOV. DARK % TOTAL MOV.” value (mouse; 0.03 mg/kg IP)?
Its value is 62%.

What about the “TOTAL MOVEMENTS” value (mouse; 0.03 mg/kg IP) of the same compound?
Its value is 522.

And the “EFF. % VS CONTROL (LIGHT TIME TOTAL TIME)” value (mouse; 0.3 mg/kg IP)?
Its value is 30%.

And the “EFF. % VS CONTROL (LIGHT-DARK MOVEMENTS)” value (mouse; 0.3 mg/kg IP)?
The value was 37%.

What about the “EFF. % VS CONTROL (MOV. DARK % TOTAL MOV.)” value (mouse; 0.3 mg/kg IP) of the same compound?
The value was -1.1%.

And the “LIGHT TIME TOTAL TIME” value (mouse; 0.3 mg/kg IP)?
Its value is 33.9%.

What about the “LIGHT-DARK MOVEMENTS” value (mouse; 0.3 mg/kg IP) of the same compound?
Its value is 19.8.

What about the “MOV. DARK % TOTAL MOV.” value (mouse; 0.3 mg/kg IP) of the same compound?
The value was 57%.

What about the “TOTAL MOVEMENTS” value (mouse; 0.3 mg/kg IP) of the same compound?
The value was 499.

And the “EFF. % VS CONTROL (LIGHT TIME TOTAL TIME)” value (mouse; 3.0 mg/kg IP)?
The value was 24%.

What about the “EFF. % VS CONTROL (LIGHT-DARK MOVEMENTS)” value (mouse; 3.0 mg/kg IP) of the same compound?
The value was 26%.

And the “EFF. % VS CONTROL (MOV. DARK % TOTAL MOV.)” value (mouse; 3.0 mg/kg IP)?
Its value is -9%.

And the “LIGHT TIME TOTAL TIME” value (mouse; 3.0 mg/kg IP)?
The value was 32.4%.

What about the “LIGHT-DARK MOVEMENTS” value (mouse; 3.0 mg/kg IP) of the same compound?
Its value is 18.2.

And the “MOV. DARK % TOTAL MOV.” value (mouse; 3.0 mg/kg IP)?
The value was 60%.

And the “TOTAL MOVEMENTS” value (mouse; 3.0 mg/kg IP)?
Its value is 495.

And the “anxiolytic activity, result in words” value (mouse)?
The value was “anxiolytic activity without sedative activity”.

And the “increase in the number of light-dark movements in comparison with the controls” value (mouse)?
The value was 20-30%.
